# In patent US6514952B1, “Hydantoin derivatives as inhibitors of leucocyte adhesion and as VLA-4 antagonists” (Hoechst Aktiengesellschaft, priority 1996, dated 2003):
# Biological target: T1, interaction between VCAM-1 and VLA-4 (Homo sapiens, UniProt P05556+P13612)
# T1 construct: the VLA-4-integrins, are offered in their natural form as surface molecules on human U937 cells; host or cells: U937 cells (VLA-4, endogenous); hVCAM-1(1-3)-IgG from supernatant of transfected COS cells (ATCC CRL1651)
# T1 sequence (P13612 34-1032): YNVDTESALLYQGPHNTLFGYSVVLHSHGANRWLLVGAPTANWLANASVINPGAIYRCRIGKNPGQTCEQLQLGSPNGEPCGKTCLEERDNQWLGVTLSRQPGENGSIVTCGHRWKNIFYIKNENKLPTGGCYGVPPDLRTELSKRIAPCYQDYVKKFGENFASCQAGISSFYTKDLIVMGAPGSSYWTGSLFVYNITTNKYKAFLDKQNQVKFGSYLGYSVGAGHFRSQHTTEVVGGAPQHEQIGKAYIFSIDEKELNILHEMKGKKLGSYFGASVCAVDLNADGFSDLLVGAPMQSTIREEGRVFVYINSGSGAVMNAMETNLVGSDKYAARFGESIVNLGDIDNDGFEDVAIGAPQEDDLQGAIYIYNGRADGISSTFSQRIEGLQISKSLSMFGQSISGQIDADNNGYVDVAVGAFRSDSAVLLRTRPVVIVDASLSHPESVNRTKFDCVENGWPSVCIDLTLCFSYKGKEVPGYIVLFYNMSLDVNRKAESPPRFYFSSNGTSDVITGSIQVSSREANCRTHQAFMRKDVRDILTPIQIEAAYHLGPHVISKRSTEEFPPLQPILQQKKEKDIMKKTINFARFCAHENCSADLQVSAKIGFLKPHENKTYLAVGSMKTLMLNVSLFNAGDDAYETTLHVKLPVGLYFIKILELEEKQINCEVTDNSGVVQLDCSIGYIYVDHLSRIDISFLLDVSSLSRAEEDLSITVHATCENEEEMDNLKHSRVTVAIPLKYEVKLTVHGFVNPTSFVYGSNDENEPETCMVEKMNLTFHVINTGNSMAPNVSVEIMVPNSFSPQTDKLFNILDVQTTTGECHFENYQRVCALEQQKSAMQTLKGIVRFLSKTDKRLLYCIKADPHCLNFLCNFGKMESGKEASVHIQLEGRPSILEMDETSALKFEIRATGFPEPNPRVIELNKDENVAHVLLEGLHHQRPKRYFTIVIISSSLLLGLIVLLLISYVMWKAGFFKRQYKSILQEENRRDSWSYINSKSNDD
# T1 sequence (P05556 21-798): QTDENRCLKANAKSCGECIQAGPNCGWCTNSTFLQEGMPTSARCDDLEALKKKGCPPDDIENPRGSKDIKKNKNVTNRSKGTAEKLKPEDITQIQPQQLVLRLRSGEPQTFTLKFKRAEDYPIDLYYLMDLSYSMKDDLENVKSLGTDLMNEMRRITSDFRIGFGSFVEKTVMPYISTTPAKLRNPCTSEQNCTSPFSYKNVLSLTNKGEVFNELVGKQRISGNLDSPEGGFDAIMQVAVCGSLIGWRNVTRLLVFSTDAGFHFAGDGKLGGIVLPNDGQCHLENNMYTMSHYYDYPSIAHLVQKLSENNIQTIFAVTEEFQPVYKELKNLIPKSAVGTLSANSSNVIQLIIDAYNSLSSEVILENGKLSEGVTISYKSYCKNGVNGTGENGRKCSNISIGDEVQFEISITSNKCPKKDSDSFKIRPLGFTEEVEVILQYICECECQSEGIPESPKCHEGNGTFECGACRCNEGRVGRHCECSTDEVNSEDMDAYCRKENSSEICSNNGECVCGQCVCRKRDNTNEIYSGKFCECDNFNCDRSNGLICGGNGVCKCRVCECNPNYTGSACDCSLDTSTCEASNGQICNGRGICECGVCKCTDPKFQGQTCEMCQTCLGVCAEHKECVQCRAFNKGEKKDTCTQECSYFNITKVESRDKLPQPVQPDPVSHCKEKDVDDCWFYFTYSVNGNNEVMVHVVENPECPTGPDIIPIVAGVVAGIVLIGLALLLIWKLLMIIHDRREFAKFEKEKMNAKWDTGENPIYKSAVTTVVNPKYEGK
# Experiment: U937/VCAM-1 cell adhesion test (adhesion of U937 cells to hVCAM-1(1-3)-IgG)
# Assay type: cell-based
# Conditions: inhibition of adhesion of human U937 cells (ATCC CRL 1593) to hVCAM-1(1-3)-IgG
# Excerpt: As a test method for the activity of the compounds of the formula I on the interaction between VCAM-1 and VLA-4, an assay is used which is specific for this interaction. The cellular binding components, i.e. the VLA-4-integrins, are offered in their natural form as surface molecules on human U937 cells (ATCC CRL 1593), which belong to the group of leucocytes. As specific binding components, recombinant soluble fusion proteins, prepared by genetic engineering and consisting of the extracytoplasmic domains of human VCAM-1 and the constant region of a human immunoglobulin of the subclass IgG1, are used.
# Assay for the Measurement of the Adhesion of U937 Cells (ATCC CRL 1593) to hVCAM-1(1-3)-IgG
# 1. Preparation of Human VCAM-1(1-3)-IgG and Human CD4-IgG
# A genetic construct for the expression of the extracellular domains of human VCAM-1 was employed, associated with the genetic sequence of the heavy chain of human immunoglobulin IgG1 (hinge, CH2 and CH3 regions), from Dr. Brian Seed, Massachusetts General Hospital, Boston, USA. The soluble fusion protein hVCAM-1(1-3)-IgG contained the throe amino-terminal extracellular immunoglobulin-like domains of human VCAM-1 (Damle and Aruffo, Proc. Natl. Acad. Sci. USA 1991, 88, 6403). CD4-IgG (Zettlmeissl et al., DNA and Cell Biology 1990, 9, 347) served as a fusion protein for negative controls. The recombinant proteins were expressed as soluble proteins after DEAE/dextran-mediated DNA-transfection in COS cells (ATCC CRL1651) according to standard procedures (Ausubel et al., Current protocols in molecular biology, John Wiley & Sons, Inc., 1994).
# 2. Assay for the Measurement of the Adhesion of U937 Cells to hVCAM-1(1-3)-IgG
# 2.1 96-well microtiter test plates (Nunc Maxisorb) were incubated at room temperature for 1 hour with 100 μl/well of a goat-anti-human IgG antibody solution (10 μg/ml in 50 mM Tris, pH 9.5). After removing the antibody solution, washing was carried out once with PBS.
# 2.2 150 μl/well of a blocking buffer (1% BSA in PBS) was incubated on the plates at room temperature for 0.5 hour. […]
row,Compound,IC50
1,"CC1(c2ccc(C3=NCCN3)cc2)C(=O)N(CC(=O)NC[C@H](NC(=O)OCC23CC4CC(CC(C4)C2)C3)C(=O)O)C(=O)N1Cc1ccc2ccccc2c1 (stereo partly drawn) [Example 3, (S)-3-(((R,S)-4-(4-(4,5-Dihydro-2-imidazolyl)phenyl)-3-(2-naphthylmethyl)-4-methyl-2,5-dioxoimidazolidin-1-yl)acetylamino)-2-(1-adamantyl-methyloxycarbonylamino)propionic Acid]",40 µM
2,CC1(c2ccc(C(N)=O)cc2)C(=O)N(CC(=O)N[C@@H](CC(=O)O)C(=O)N[C@H](C(=O)O)c2ccccc2)C(=O)N1Cc1ccccc1 (stereo partly drawn) [Example 1],7.5 µM
3,"CC1(c2ccc(C3=NCCN3)cc2)C(=O)N(CC(=O)N[C@@H](CC(=O)O)C(=O)N[C@H](C(=O)O)c2ccccc2)C(=O)N1Cc1ccc2ccccc2c1 (stereo partly drawn) [Example 2, ((R,S)-4-(4-(4,5-Dihydro-2-imidazolyl)phenyl)-3-(2-naphthylmethyl)-4-methyl-2,5-dioxoimidazolidin-1-yl)acetyl-L-aspartyl-L-phenylglycine]",14.5 µM
